For 15 compounds, T/C results are on record in PubChem BioAssay AID248 (DTP/NCI, 2004).

Inconclusive results and toxic doses are left out.

The subject of this test is L1210 leukemia ip in BDF1 mice, survival T/C. In words: NCI In Vivo Anticancer Drug Screen. Data for tumor model L1210 Leukemia (intraperitoneal) in B6D2F1 (BDF1) mice. The conditions noted are these: endpoint: mean survival time, higher = longer survival. In a few lines: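 In this screen, tumor-bearing mice given compound are compared to those given vehicle, and their survival values are reported as a treated-to-control quotient.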

[1] abbreviates: dose: 100.0 mg/kg/injection, schedule: Q01DX009 (ip), vehicle: saline with Tween-80.
[2] abbreviates: dose: 200.0 mg/kg/injection, schedule: Q01DX009 (ip), vehicle: saline with Tween-80.
Setting [3] is: dose: 75.0 mg/kg/injection, schedule: Q01DX001 (ip), vehicle: saline.
Setting [4] is: dose: 150.0 mg/kg/injection, schedule: Q01DX001 (ip), vehicle: saline.
Setting [5] is: dose: 100.0 mg/kg/injection, schedule: Q04DX003 (ip), vehicle: Klucel (hydroxypropylcellulose) (HPC).
The mark [6] stands for this setting: dose: 200.0 mg/kg/injection, schedule: Q04DX003 (ip), vehicle: Klucel (hydroxypropylcellulose) (HPC).

In the case of `CN(C1CCCC1)C1CCCC1`, the T/C by setting is: (dose: 10.0 mg/kg/injection, schedule: Q01DX009 (ip), vehicle: Klucel (hydroxypropylcellulose) (HPC)) 106 % of control; (dose: 10.0 mg/kg/injection, schedule: Q04DX003 (ip), vehicle: Klucel (hydroxypropylcellulose) (HPC)) 102 % of control; (dose: 20.0 mg/kg/injection, schedule: Q01DX009 (ip), vehicle: Klucel (hydroxypropylcellulose) (HPC)) 104 % of control; (dose: 20.0 mg/kg/injection, schedule: Q04DX003 (ip), vehicle: Klucel (hydroxypropylcellulose) (HPC)) 94 % of control; (dose: 40.0 mg/kg/injection, schedule: Q01DX009 (ip), vehicle: Klucel (hydroxypropylcellulose) (HPC)) 102 % of control; (dose: 40.0 mg/kg/injection, schedule: Q04DX003 (ip), vehicle: Klucel (hydroxypropylcellulose) (HPC)) 96 % of control.

`CC(=O)c1ccc(C)c([N+](=O)[O-])c1`: the T/C reads like this: (dose: 50.0 mg/kg/injection, schedule: Q01DX001 (ip), vehicle: carboxymethylcellulose (CMC)) 98 % of control; (dose: 100.0 mg/kg/injection, schedule: Q01DX001 (ip), vehicle: carboxymethylcellulose (CMC)) 91 % of control; (dose: 200.0 mg/kg/injection, schedule: Q01DX001 (ip), vehicle: carboxymethylcellulose (CMC)) 107 % of control; (dose: 400.0 mg/kg/injection, schedule: Q01DX001 (ip), vehicle: carboxymethylcellulose (CMC)) 91 % of control.

On to `N=Nc1c2ccccc2c2nc3c(N)[nH]nc(N)c3nc12`, for which the T/C is 107 % of control (dose: 100.0 mg/kg/injection, schedule: Q04DX002 (ip), vehicle: Klucel (hydroxypropylcellulose) (HPC)); 103 % of control (dose: 200.0 mg/kg/injection, schedule: Q04DX002 (ip), vehicle: Klucel (hydroxypropylcellulose) (HPC)); 100 % of control (dose: 400.0 mg/kg/injection, schedule: Q04DX002 (ip), vehicle: Klucel (hydroxypropylcellulose) (HPC)).

In the case of `C=CCSCCC=O`, the T/C reads like this: (dose: 25.0 mg/kg/injection, schedule: Q01DX001 (ip), vehicle: Klucel (hydroxypropylcellulose) (HPC)) 100 % of control; (dose: 50.0 mg/kg/injection, schedule: Q01DX001 (ip), vehicle: Klucel (hydroxypropylcellulose) (HPC)) 102 % of control; (dose: 100.0 mg/kg/injection, schedule: Q01DX001 (ip), vehicle: Klucel (hydroxypropylcellulose) (HPC)) 102 % of control.

In the case of `CCOC(=O)N=C=O`, the T/C reads like this: (dose: 100.0 mg/kg/injection, schedule: Q01DX009 (ip), vehicle: water) 103 % of control; (dose: 100.0 mg/kg/injection, schedule: Q04DX003 (ip), vehicle: water) 95 % of control; (dose: 200.0 mg/kg/injection, schedule: Q01DX009 (ip), vehicle: water) 100 % of control; (dose: 200.0 mg/kg/injection, schedule: Q04DX003 (ip), vehicle: water) 101 % of control; (dose: 400.0 mg/kg/injection, schedule: Q04DX003 (ip), vehicle: water) 101 % of control.

`CCCCCCC(O)CCCCCCCCCCC(=O)OC` (stereo not drawn): the T/C is, setting by setting: under setting [1], 98 % of control; under setting [2], 88 % of control; (dose: 400.0 mg/kg/injection, schedule: Q01DX009 (ip), vehicle: saline with Tween-80) 92 % of control.

As for `OC1C2(CCCCC2)CNC12C=CCCC2` (stereo not drawn), the T/C under setting [3] was 98 % of control and the T/C under setting [4] is 97 % of control.

Turning to `CN=C(N)c1ccc(NC(=O)/C=C\c2ccc(C(=O)Nc3ccc(C(N)=NC)cc3)cc2)cc1`, the T/C is 112 % of control (dose: 1.88 mg/kg/injection, schedule: Q01DX Z (ip), vehicle: saline); 119 % of control (dose: 3.75 mg/kg/injection, schedule: Q01DX Z (ip), vehicle: saline); 122 % of control (dose: 7.5 mg/kg/injection, schedule: Q01DX Z (ip), vehicle: saline); 233 % of control (dose: 60.0 mg/kg/injection, schedule: Q01DX Z (ip), vehicle: saline); 206 % of control (dose: 120.0 mg/kg/injection, schedule: Q01DX Z (ip), vehicle: saline); 96 % of control (dose: 480.0 mg/kg/injection, schedule: Q01DX Z (ip), vehicle: saline).

Consider `COC(=N)c1ccc(Cl)cc1`, for which the T/C under setting [1] was 88 % of control and the T/C under setting [2] is 93 % of control.

As for `COc1ccccc1-n1c(O)c(N=Nc2ccccc2)c(=O)n(-c2ccc(C)cc2)c1=S`, the T/C runs as follows: (dose: 50.0 mg/kg/injection, schedule: Q04DX003 (ip), vehicle: Klucel (hydroxypropylcellulose) (HPC)) 100 % of control; under setting [5], 98 % of control; under setting [6], 102 % of control.

On to `CCOC(=O)C(C#N)C(C(C)=O)C(=O)OCC` (stereo not drawn), for which the T/C (dose: 25.0 mg/kg/injection, schedule: Q01DX009 (ip), vehicle: saline sonified) was 120 % of control; the T/C (dose: 50.0 mg/kg/injection, schedule: Q01DX009 (ip), vehicle: saline sonified) was 124 % of control; the T/C (dose: 75.0 mg/kg/injection, schedule: Q01DX001 (ip), vehicle: other) is 94 % of control; the T/C (dose: 100.0 mg/kg/injection, schedule: Q01DX009 (ip), vehicle: saline sonified) was 104 % of control; the T/C (dose: 100.0 mg/kg/injection, schedule: Q04DX003 (ip), vehicle: saline sonified) was 110 % of control; the T/C (dose: 150.0 mg/kg/injection, schedule: Q01DX001 (ip), vehicle: other) is 102 % of control. The T/C (dose: 300.0 mg/kg/injection, schedule: Q01DX001 (ip), vehicle: other) is 100 % of control.

On to `CC1C(C)N1P(I)(c1ccccc1)(c1ccccc1)c1ccccc1` (stereo not drawn), for which the T/C (dose: 2.5 mg/kg/injection, schedule: Q01DX001 (ip), vehicle: carboxymethylcellulose (CMC)) is 115 % of control.

`O=C(O)c1cc(CBr)ccc1CBr`: the T/C runs as follows: (dose: 6.25 mg/kg/injection, schedule: Q01DX009 (ip), vehicle: saline with Tween-80) 100 % of control; (dose: 6.25 mg/kg/injection, schedule: Q04DX003 (ip), vehicle: saline with Tween-80) 93 % of control; (dose: 12.5 mg/kg/injection, schedule: Q01DX009 (ip), vehicle: saline with Tween-80) 103 % of control; (dose: 12.5 mg/kg/injection, schedule: Q04DX003 (ip), vehicle: saline with Tween-80) 94 % of control; (dose: 25.0 mg/kg/injection, schedule: Q01DX009 (ip), vehicle: saline with Tween-80) 95 % of control; (dose: 25.0 mg/kg/injection, schedule: Q04DX003 (ip), vehicle: saline with Tween-80) 102 % of control.

Regarding `Cc1ccc[n+](CC(=O)c2ccccc2)c1`, the T/C is 102 % of control (dose: 0.19 mg/kg/injection, schedule: Q04DX003 (ip), vehicle: saline); 98 % of control (dose: 0.39 mg/kg/injection, schedule: Q01DX009 (ip), vehicle: saline); 98 % of control (dose: 0.39 mg/kg/injection, schedule: Q04DX003 (ip), vehicle: saline); 106 % of control (dose: 0.78 mg/kg/injection, schedule: Q01DX009 (ip), vehicle: saline); 96 % of control (dose: 0.78 mg/kg/injection, schedule: Q04DX003 (ip), vehicle: saline); 98 % of control (dose: 1.56 mg/kg/injection, schedule: Q04DX003 (ip), vehicle: saline). Besides, the T/C is, setting by setting: under setting [3], 97 % of control; under setting [4], 90 % of control; (dose: 300.0 mg/kg/injection, schedule: Q01DX001 (ip), vehicle: saline) 88 % of control.

For the compound `O=C(CNC(=O)OCc1ccccc1)NCC(=O)NC(Cc1c[nH]c2ccccc12)C(=O)OCc1ccccc1` (stereo not drawn), the T/C reads like this: under setting [5], 100 % of control; under setting [6], 101 % of control; (dose: 400.0 mg/kg/injection, schedule: Q04DX003 (ip), vehicle: Klucel (hydroxypropylcellulose) (HPC)) 94 % of control.
